This assay deals with murine B cells. Description: Murine B cell activation: CD86 expression on CD19 positive B cells after anti-IgM stimulation. In kind it is cell-based. To be noted: Balb/c mouse splenocytes, anti-IgM 30 μg/ml, 24 hours, read-out: mCD86/ IC50 CD86. How it is done: PI3Kδ has been recognized to modulate B cell function when cells are stimulated through the B cell receptor (BCR) (Okkenhaug et al. Science 297:1031 (2002). For assessing the inhibitory property of compounds on B cell activation, the upregulation of activation markers CD86 and CD69 on murine B cells derived from mouse spleen […] is measured after stimulation with anti-IgM. CD69 is a well known activation marker for B and T cells (Sancho et al. Trends Immunol. 26:136 (2005). CD86 (also known as B7-2) is primarily expressed on antigen-presenting cells, including B cells. Resting B cells express CD86 at low levels, but upregulate it following stimulation of e.g. the BCR or IL-4 receptor. CD86 on a B cell interacts with CD28 on T cells. This interaction is required for optimal T cell activation and for the generation of an optimal IgG1 response (Carreno et al. Annu Rev Immunol. 20:29 (2002)).
Spleens from Balb/c mice were collected, splenocytes were isolated and washed twice with RPMI containing 10% foetal bovine serum (FBS), 10 mM HEPES, 100 Units/ml penicilline/streptomycine. RPMI supplemented in this way is subsequently referred to as medium. The cells were adjusted to 2.5×10^6 cells/ml in medium and 200 μl cell suspension ([…]) were added to the appropriate wells of 96 well plates.
Then the cells were stimulated by adding 50 μl anti-IgM mAb in medium (final concentration: 30 μg/ml). After incubation for 24 hours at 37° C., the cells were stained with the following antibody cocktails: anti-mouse CD86-FITC, anti-mouse CD69-PerCP-Cy5.5, anti-mouse CD19-PerCP for the assessment of B cells, and anti-mouse CD3-FITC, anti-mouse CD69-PE for the assessment of T cells (2 μl of each antibody/well). After one hour at room temperature (RT) in the dark the cells were transferred to 96 Deepwell plates. The cells were washed once with 1 ml PBS containing 2% FBS and after re-suspension in 200 μl the samples were analyzed on a FACS Calibur flow cytometer. Lymphocytes were gated in the FSC/SSC dot plot according to size and granularity and further analyzed for expression of CD19, CD3 and activation markers (CD86, CD69). Data were calculated from dot blots as percentage of cells positively stained for activation markers within the CD19+ or CD3+ population using BD CellQest Software.
For assessing the inhibitory property of compounds, compounds were first dissolved and diluted in DMSO followed by a 1:50 dilution in medium. Splenocytes from Balb/c mice were isolated, re-suspended and transfered to 96 well plates as described above (200 μl/well). The diluted compounds or solvent were added to the plates (25 μl) and incubated at 37° C. for 1 hour. Then the cultures were stimulated with 25 μl anti-IgM mAb/well (final concentration 30 μg/ml) for 24 hours at 37° C. and stained with anti-mouse CD86-FITC and anti-mouse CD19-PerCP (2 μl of each antibody/well). CD86 expression on CD19 positive B cells was quantified by flow cytometry as described above.

pIC50: −log10 of the molar value.

For `COc1ncc(-c2ccc3ncnc(-c4cccc(C(=O)N5CCN(C)CC5)c4)c3c2)cn1` [Example 2], the pIC50 is 7.16.
As for `COc1ccc(-c2ccc3ncnc(-c4cncc(C(=O)N5CCNC(C)(C)C5)c4)c3c2)cc1C(F)(F)F` [Example 81, (3,3-Dimethyl-piperazin-1-yl)-{5-[6-(4-methoxy-3-trifluoromethyl-phenyl)-quinazolin-4-yl]-pyridin-3-yl}-methanone], the figure is 7.10; as for `COc1ccc(-c2ccc3ncnc(-c4cccc(C(=O)N5CCN(C(C)=O)CC5)c4)c3c2)cc1S(=O)(=O)N1CCCC1` [Example 7], 7.70.
As for `COc1ccc(-c2ccc3ncnc(-c4ccc(C)c(C(=O)N5CC6CC5CN6C)c4)c3c2)cn1` (stereo not shown) [Example 117], the figure is 7.00; as for `COc1ccc(-c2ccc3ncnc(-c4cc(F)cc(C(=O)N5CCN(C(C)=O)CC5)c4)c3c2)cn1` [Example 110, 1-(4-{3-Fluoro-5-[6-(6-methoxy-pyridin-3-yl)-quinazolin-4-yl]-benzoyl}-piperazin-1-yl)-ethanone], 6.81.
Consider `COc1ccc(-c2ccc3ncnc(-c4cccc(C(=O)N5C[C@@H]6C[C@H]5CN6C)c4)c3c2)cn1` [Example 91, {3-[6-(6-Methoxy-pyridin-3-yl)-quinazolin-4-yl]-phenyl}-((1S,4S)-5-methyl-2,5-diaza-bicyclo[2.2.1]hept-2-yl)-methanone], for which the pIC50 is 7.36.
In the case of `CNc1ncc(-c2ccc3ncnc(-c4cncc(C(=O)N5CCN(C)CC5)c4)c3c2)cc1C` [Example 75, {5-[6-(5-Methyl-6-methylamino-pyridin-3-yl)-quinazolin-4-yl]-pyridin-3-yl}-(4-methyl-piperazin-1-yl)-methanone], the pIC50 is 7.27.

The values are drawn from US20140249139A1, “Quinazoline Derivatives” (NOVARTIS AG, priority 2011, published 2014).
